Experimental findings from patent US20250109141A1, “BRD4 PROTEIN DEGRADER COMPOUND, AND PREPARATION METHOD AND USE THEREOF” (Miracure Biotechnology Limited, priority 2023, published 2025) are described below.

The structures appear in SMILES notation. Where two headings read alike, the source gives them in different places.

In experiment [1] the test system is 22RV1. The experiment in a line: Cell proliferation assay (CellTiterGlo, 72 h), 22RV1. The experiment is classed as cell-based. Particulars: Homo sapiens, read-out: 22Rv1 ATP average IC50. As for the experimental part:
All incubations were performed at 37° C. in a humidified carbon dioxide incubator.
(§1) The cells were seeded in a 96-well plate (white wall/transparent bottom) at 5000 cells/well and cultured overnight.
(§2) On day 2, A stock solution of the compound at a concentration of 10 mM was subjected to an 8-fold serial dilution to obtain 8 concentration points. 2 μL of the compound solution at each concentration point was added to 98 μL of fresh medium, and the mixture was mixed homogeneously. Then, 5 μL of the compound solution diluted in the medium at each concentration point was added to 100 μL of overnight medium containing the cells, and 2 replicates were set for each concentration. The mixture was cultured for 72 h.
(§3) After 72 h of compound treatment, the plate was equilibrated to room temperature, 100 μL of CellTiterGlo (Promega) was added. The mixture was mixed homogeneously for 2 min, left to stand at room temperature for 10 min, and then read for luminescence values on a SpectraMax M5 microplate reader to evaluate cell viability. The positive control was 1% Tween-20 and the negative control was 0.1% DMSO. IC50 was generated by 4-parameter non-linear regression fitting in GraphPad Prism.

For experiment [2], the target named is BRD4 (Homo sapiens, UniProt O60885). The experiment in a line: BRD4 degradation assay (Western-blot / Simple Western) in 22RV1. As to conditions: 22RV1 cells, target content as percentage of control (DMSO = 100%).
The test system of experiment [3] is LNCaP. The experiment in a line: Cell proliferation assay (CellTiterGlo, 72 h), LNCaP. The experiment is classed as cell-based. As to conditions: Homo sapiens, LNCap cells, 72 h compound treatment, read-out: LNCap ATP average IC50. As for the experimental part:
The cell line used was 22RV1 or LNCaP, and the medium was RPMI-1640 containing 10% FBS and antibiotics. All incubations were performed at 37° C. in a humidified carbon dioxide incubator.
On day 1, cells were digested with 0.25% trypsin (containing EDTA) and collected by centrifugation.
as §1, §2, §3
(Cellular ATP, detected with luciferase, serves as a proxy for viable cell number.)

[4] abbreviates: 22Rv1 cells, 72 h compound treatment, CellTiterGlo.

The IC50 is the midpoint of a concentration-inhibition curve. Consider `Cc1sc2c(c1C)C(c1ccc(C#CCNC(=N)NO)cc1)=N[C@@H](CC(=O)OC(C)(C)C)c1nnc(C)n1-2` [Compound 9111], for which the values for the IC50 in experiment [1] (setting [4]) and in experiment [3] were 200 to 500 nM and 50 to 200 nM, respectively. Further, the “BRD4 degradation of 22RV1 (200 nM 5 h)” value in experiment [2] is “D (80%<D<100%)”.

In the case of `Cc1sc2c(c1C)C(c1ccc(C#CCN)cc1)=N[C@@H](CC(=O)OCC1(C)COC1)c1nnc(C)n1-2` [Compound 9112], the IC50 lay within 50 to 200 nM in experiment [1] (22Rv1, 72 h) and 50 to 200 nM in experiment [3]. Besides, the “BRD4 degradation of 22RV1 (200 nM 5 h)” value in experiment [2] is listed as “D (80%<D<100%)”.

In the case of `Cc1sc2c(c1C)C(c1ccc(/C=C/CNC(=N)NO)cc1)=N[C@@H](CC(=O)OC(C)(C)C)c1nnc(C)n1-2` [Compound 9114], in experiment [1] (setting [4]), the IC50 was 50 to 200 nM. Further, the “BRD4 degradation of 22RV1 (200 nM 5 h)” value in experiment [2] is “C (50%<C<80)”.

Consider `COC(=O)C=Cc1ccc(C2=N[C@@H](CC(=O)OC(C)(C)C)c3nnc(C)n3-c3sc(C)c(C)c32)cc1` [Compound 9118], for which the IC50 in experiment [1] (setting [4]) is 200 to 500 nM; in experiment [3], under 50 nM.

As for `Cc1noc2c1-c1ccccc1C(c1ccc(/C=C/CN)cc1)=N[C@H]2CC(=O)OC(C)(C)C` [Compound 9122], the IC50 is over 500 nM in experiment [1] (setting [4]) and 50 to 200 nM in experiment [3].

With `Cc1sc2c(c1C)C(c1ccc(C3CC3CNO)cc1)=N[C@@H](CC(=O)OC(C)(C)C)c1nnc(C)n1-2` (stereo partly shown) [Compound 9123], the IC50 in experiment [1] (setting [4]) and in experiment [3] was under 50 nM in each case.

Consider `Cc1sc2c(c1C)C(c1ccc(/C=C/C=N/O)cc1)=N[C@@H](CC(=O)OC(C)(C)C)c1nnc(C)n1-2` [Compound 9132-A], for which the values for the IC50 in experiment [1] (setting [4]) and in experiment [3] were 50 to 200 nM and under 50 nM, respectively. In addition, the “BRD4 degradation of 22RV1 (200 nM 5 h)” value in experiment [2] is reported as “D (80%<D<100%)”.

Regarding `Cc1sc2c(c1C)C(c1ccc(C3CC3CN)cc1)=N[C@@H](CC(=O)OC(C)(C)C)c1nnc(C)n1-2` (stereo partly shown) [Compound 9138], the IC50 in experiment [1] (setting [4]) and in experiment [3] was over 500 nM throughout.

`Cc1noc2c1-c1ccccc1C(c1ccc(C#CCN)cc1)=N[C@H]2Cc1nccs1` [Compound 9141]: the 50% inhibitory concentration (IC50) in experiment [1] (setting [4]) and in experiment [3] was over 500 nM in each case.

As to `CC(=O)ONC/C=C/c1ccc(C2=N[C@@H](CC(=O)OC(C)(C)C)c3nnc(C)n3-c3sc(C)c(C)c32)cc1` [Compound 9144], the half-inhibitory concentration (IC50) in experiment [1] (setting [4]) and in experiment [3] was under 50 nM in each case.

As for `COC(=O)C[C@@H]1N=C(c2ccc(Cl)cc2)c2c(sc(C(=O)NCCOCCNC(=O)C[C@@H]3N=C(c4ccc(C#CCN)cc4)c4c(sc(C)c4C)-n4c(C)nnc43)c2C)-n2c(C)nnc21` [Compound 9157], the IC50 in experiment [1] (setting [4]) and in experiment [3] was 200 to 500 nM throughout.

As for `COc1ccc2c(c1)C(c1ccc(C#CCNC(=N)N)cc1)=N[C@@H](CC(=O)OC(C)(C)C)c1nnc(C)n1-2` [Compound 9159], the IC50 in experiment [1] (22Rv1, 72 h) was over 500 nM; in experiment [3], over 500 nM.

For the molecule `Cc1sc2c(c1C)C(c1ccc(/C=C/CN)cc1)=N[C@@H](Cc1nnc(C(C)C)o1)c1nnc(C)n1-2` [Compound 9168], the IC50 in experiment [1] (setting [4]) and in experiment [3] was under 50 nM in each case.

As for `Cc1sc2c(c1C)C(c1ccc(/C=C/CNS(C)(=O)=O)cc1)=N[C@@H](CC(=O)OC(C)(C)C)c1nnc(C)n1-2` [Compound 9200], the IC50 in experiment [1] (setting [4]) and in experiment [3] was 50 to 200 nM in each case.

`COc1ccc2c(c1)C(c1ccc3c(c1)NC(=O)CC3)=N[C@@H](CC(=O)OC(C)(C)C)c1nnc(C)n1-2` [Compound 9211]: the 50% inhibitory concentration (IC50) in experiment [1] (22Rv1, 72 h) is over 500 nM; in experiment [3], over 500 nM.

Regarding `COC(=O)C[C@@H]1N=C(c2ccc(/C=C/CNO)c(F)c2)c2cc(OC)ccc2-n2c(C)nnc21` [Compound 9213], the IC50 in experiment [1] (22Rv1, 72 h) is under 50 nM; in experiment [3], under 50 nM.

As for `COc1ccc2c(c1)C(c1ccc(/C=C/CNO)c(F)c1)=N[C@@H](CC(=O)O)c1nnc(C)n1-2` [Compound 9214], the half-inhibitory concentration (IC50) in experiment [1] (22Rv1, 72 h) was over 500 nM; in experiment [3], over 500 nM.

Consider `COc1ccc2c(c1)C(c1ccc(/C=C/C=N\O)cc1)=N[C@@H](CC(=O)OC(C)(C)C)c1nnc(C)n1-2` [Compound 9221], for which the IC50 in experiment [1] (22Rv1, 72 h) is over 500 nM; in experiment [3], 200 to 500 nM.

In the case of `COc1ccc2c(c1)C(c1ccc(/C=C/C=N/O)cc1)=N[C@@H](CC(=O)OC(C)(C)C)c1nnc(C)n1-2` [Compound 9222], the IC50 in experiment [1] (22Rv1, 72 h) is 200 to 500 nM; in experiment [3], 50 to 200 nM.

For `CCNC(=O)C[C@@H]1N=C(c2ccc(Cl)cc2)c2cc(OC)ccc2-n2c(C)nnc21` [I-BET-762, reference compound], the IC50 in experiment [1] (setting [4]) and in experiment [3] was over 500 nM each time.
